Where two headings read alike, the source gives them in different places. Marks after values point to notes of the source that are not given here.
Key:
CYP3A4 [1] = target: T1, CYP3A4 (Homo sapiens, UniProt P08684, S18F)
CYP3A4 [2] = target: T1, CYP3A4; assay: Absorbance difference titrations of recombinant CYP3A4 with MDZ and CBZ
CYP3A4 [3] = target: T1, CYP3A4; conditions: read-out: Km of 10,11-epoxide formation; ref [26], [89]; cited from earlier work
CYP3A4 [4] = target: T1, CYP3A4; remark: listed apart in the source
CYP3A4 [5] = target: CYP3A4 (Homo sapiens, UniProt P08684); conditions: for Km at 2 min: human, fit to eq 1
CYP3A4 [6] = target: T1, CYP3A4; conditions: read-out: experimental KM for 1′-OH-MDZ formation; ref [23], [86]–[88]; cited from earlier work
[7] = target: recombinant human cytochrome P450 3A4 (CYP3A4 NF14 construct) (human) (UniProt P08684); assay: SEC
[8] = 260 μM Carbamazepine alone, 1 μM CYP3A4
[9] = 260 μM Carbamazepine alone, 1 μM CYP3A4, chemical equivalence (eq 7)
[10] = 260 μM Carbamazepine alone, 1 μM CYP3A4, eq 6
[11] = 260 μM Midazolam alone, 1 μM CYP3A4
[12] = 260 μM Midazolam alone, 1 μM CYP3A4, eq 6
[13] = 260 μM Midazolam with 260 μM Carbamazepine bound simultaneously, 1 μM CYP3A4

NC(=O)N1c2ccccc2C=Cc2ccccc21 [CBZ, carbamazepine]
RFe2+-CO, proton peak aa′ (CYP3A4 [1]; [8]): 1.67 ± 0.11 s⁻¹
RFe2+-CO, proton peak bb′ (CYP3A4 [1]; [8]): 1.54 ± 0.09 s⁻¹
RFe2+-CO, proton peak cc′ (CYP3A4 [1]; [8]): 1.59 ± 0.10 s⁻¹
RFe2+-CO, proton peak dd′ (CYP3A4 [1]; [8]): 1.47 ± 0.09 s⁻¹
RFe2+-CO, proton peak ee′ (CYP3A4 [1]; [8]): 1.52 ± 0.09 s⁻¹
RFe3+, proton peak aa′ (CYP3A4 [1]; [8]): 2.44 ± 0.24 s⁻¹
RFe3+, proton peak bb′ (CYP3A4 [1]; [8]): 2.56 ± 0.33 s⁻¹
RFe3+, proton peak cc′ (CYP3A4 [1]; [8]): 2.38 ± 0.23 s⁻¹
RFe3+, proton peak dd′ (CYP3A4 [1]; [8]): 2.50 ± 0.25 s⁻¹
RFe3+, proton peak ee′ (CYP3A4 [1]; [8]): 2.22 ± 0.20 s⁻¹
RP, proton peak aa′ (CYP3A4 [1]; [8]): 0.77 ± 0.26 s⁻¹
RP, proton peak bb′ (CYP3A4 [1]; [8]): 1.03 ± 0.34 s⁻¹
RP, proton peak cc′ (CYP3A4 [1]; [8]): 0.79 ± 0.25 s⁻¹
RP, proton peak dd′ (CYP3A4 [1]; [8]): 1.03 ± 0.26 s⁻¹
RP, proton peak ee′ (CYP3A4 [1]; [8]): 0.71 ± 0.22 s⁻¹
rmin, proton peak aa′ (CYP3A4 [1]; [9]): 7.02±0.40 ^b Å
rmin, proton peak bb′ (CYP3A4 [1]; [9]): 6.69±0.38 ^b Å
rmin, proton peak cc′ (CYP3A4 [1]; [9]): 6.98±0.37 ^b Å
rmin, proton peak dd′ (CYP3A4 [1]; [9]): 6.69±0.29 ^b Å
rmin, proton peak ee′ (CYP3A4 [1]; [9]): 7.12±0.37 ^b Å
rapp, proton peak bb′ (CYP3A4 [1]; [10]): 7.51±0.42 Å
rapp, proton peak cc′ (CYP3A4 [1]; [10]): 7.84±0.41 Å
rapp, proton peak dd′ (CYP3A4 [1]; [10]): 7.51±0.33 Å
rapp, proton peak ee′ (CYP3A4 [1]; [10]): 7.99±0.41 Å
calculated proton-heme distances on average (CYP3A4 [1]; CBZ alone): 7–8 Å
variation in the proton RPs (CYP3A4 [1]; CBZ alone): 30%
RP of CBZ protons (CYP3A4 [1]; in the presence of MDZ): < 0.04
Amax of the CBZ titration curve (CYP3A4 [2]; CBZ alone, fit to eq 3): 0.0049 ± 0.0007 µM⁻¹ cm⁻¹
Km (CYP3A4 [3]): 119 to 442 µM
%HS of CYP3A4 heme (CYP3A4 [4]; 260 μM CBZ, 1 μM CYP3A4 (33% HS without ligands)): 34%
effect of CBZ on 1′-OH-MDZ and 4-OH-MDZ formation (CYP3A4 [5]; low [MDZ], 240 μM CBZ): competitively inhibit
effect of CBZ on 1′-OH-MDZ formation (CYP3A4 [5]; saturating CBZ (240 μM), near saturating MDZ): only partially inhibited

Cc1ncc2n1-c1ccc(Cl)cc1C(c1ccccc1F)=NC2 [MDZ, midazolam]
RFe2+-CO, proton peak 1′ (CYP3A4 [1]; [11]): 1.53 ± 0.04 s⁻¹
RFe2+-CO, proton peak 3 (CYP3A4 [1]; [11]): 1.45 ± 0.18 s⁻¹
RFe2+-CO, proton peak 3F (CYP3A4 [1]; [11]): 1.46 ± 0.20 s⁻¹
RFe2+-CO, proton peak 4F (CYP3A4 [1]; [11]): 1.91 ± 0.07 s⁻¹
RFe2+-CO, proton peak 5F (CYP3A4 [1]; [11]): 1.72 ± 0.10 s⁻¹
RFe2+-CO, proton peak 6F (CYP3A4 [1]; [11]): 1.83 ± 0.11 s⁻¹
RFe2+-CO, proton peak 7 (CYP3A4 [1]; [11]): 1.67 ± 0.09 s⁻¹
RFe2+-CO, proton peak 9 (CYP3A4 [1]; [11]): 1.65 ± 0.12 s⁻¹
RFe2+-CO, proton peak 10 (CYP3A4 [1]; [11]): 1.81 ± 0.11 s⁻¹
RFe3+, proton peak 1′ (CYP3A4 [1]; [11]): 2.18 ± 0.02 s⁻¹
RFe3+, proton peak 3 (CYP3A4 [1]; [11]): 1.88 ± 0.04 s⁻¹
RFe3+, proton peak 3F (CYP3A4 [1]; [11]): 1.60 ± 0.07 s⁻¹
RFe3+, proton peak 4F (CYP3A4 [1]; [11]): 1.85 ± 0.04 s⁻¹
RFe3+, proton peak 5F (CYP3A4 [1]; [11]): 2.17 ± 0.06 s⁻¹
RFe3+, proton peak 6F (CYP3A4 [1]; [11]): 1.88 ± 0.05 s⁻¹
RFe3+, proton peak 7 (CYP3A4 [1]; [11]): 1.81 ± 0.05 s⁻¹
RFe3+, proton peak 9 (CYP3A4 [1]; [11]): 2.97 ± 0.17 s⁻¹
RFe3+, proton peak 10 (CYP3A4 [1]; [11]): 2.85 ± 0.06 s⁻¹
RP, proton peak 1′ (CYP3A4 [1]; [11]): 0.65 ± 0.05 s⁻¹
RP, proton peak 3 (CYP3A4 [1]; [11]): 0.43 ± 0.18 s⁻¹
RP, proton peak 3F (CYP3A4 [1]; [11]): 0.14 ± 0.21 s⁻¹
RP, proton peak 4F (CYP3A4 [1]; [11]): -0.06 ± 0.08 s⁻¹
RP, proton peak 5F (CYP3A4 [1]; [11]): 0.45 ± 0.11 s⁻¹
RP, proton peak 6F (CYP3A4 [1]; [11]): 0.05 ± 0.12 s⁻¹
RP, proton peak 7 (CYP3A4 [1]; [11]): 0.14 ± 0.10 s⁻¹
RP, proton peak 9 (CYP3A4 [1]; [11]): 1.31 ± 0.20 s⁻¹
RP, proton peak 10 (CYP3A4 [1]; [11]): 1.03 ± 0.12 s⁻¹
rmin, proton peak 4F (CYP3A4 [1]; 260 μM Midazolam alone, 1 μM CYP3A4, calculated using the highest RP): 17.02 ^c Å
rmin, proton peak 1′ (CYP3A4 [1]; 260 μM Midazolam alone, 1 μM CYP3A4, chemical equivalence (eq 7)): 7.62±0.18 ^b Å
rapp, proton peak 1′ (CYP3A4 [1]; [12]): 9.15±0.22 Å
rapp, proton peak 3 (CYP3A4 [1]; [12]): 9.79±0.71 Å
rapp, proton peak 3F (CYP3A4 [1]; [12]): 11.84±2.95 Å
rapp, proton peak 5F (CYP3A4 [1]; [12]): 9.75±0.46 Å
rapp, proton peak 6F (CYP3A4 [1]; [12]): 14.13±6.01 Å
rapp, proton peak 7 (CYP3A4 [1]; [12]): 11.83±1.50 Å
rapp, proton peak 9 (CYP3A4 [1]; [12]): 8.14±0.27 Å
rapp, proton peak 10 (CYP3A4 [1]; [12]): 8.47±0.24 Å
RFe2+-CO, proton peak 1′ (CYP3A4 [1]; [13]): 1.57 ± 0.04 s⁻¹
RFe2+-CO, proton peak 3 (CYP3A4 [1]; [13]): 1.44 ± 0.12 s⁻¹
RFe2+-CO, proton peak 3F (CYP3A4 [1]; [13]): 1.54 ± 0.18 s⁻¹
RFe2+-CO, proton peak 4F (CYP3A4 [1]; [13]): ~ 1 sec^−1
RFe2+-CO, proton peak 5F (CYP3A4 [1]; [13]): 1.16 ± 0.19 s⁻¹
RFe2+-CO, proton peak 6F (CYP3A4 [1]; [13]): 1.76 ± 0.13 s⁻¹
RFe2+-CO, proton peak 7 (CYP3A4 [1]; [13]): 1.41 ± 0.06 s⁻¹
RFe2+-CO, proton peak 9 (CYP3A4 [1]; [13]): 1.26 ± 0.07 s⁻¹
RFe2+-CO, proton peak 10 (CYP3A4 [1]; [13]): 1.76 ± 0.09 s⁻¹
RFe3+, proton peak 1′ (CYP3A4 [1]; [13]): 2.13 ± 0.04 s⁻¹
RFe3+, proton peak 3 (CYP3A4 [1]; [13]): 1.82 ± 0.06 s⁻¹
RFe3+, proton peak 3F (CYP3A4 [1]; [13]): 2.04 ± 0.05 s⁻¹
RFe3+, proton peak 4F (CYP3A4 [1]; [13]): 1.08 ± 0.05 s⁻¹
RFe3+, proton peak 5F (CYP3A4 [1]; [13]): 1.05 ± 0.04 s⁻¹
RFe3+, proton peak 6F (CYP3A4 [1]; [13]): 1.69 ± 0.24 s⁻¹
RFe3+, proton peak 7 (CYP3A4 [1]; [13]): 1.70 ± 0.05 s⁻¹
RFe3+, proton peak 9 (CYP3A4 [1]; [13]): 2.37 ± 0.07 s⁻¹
RFe3+, proton peak 10 (CYP3A4 [1]; [13]): 2.69 ± 0.06 s⁻¹
RP, proton peak 1′ (CYP3A4 [1]; [13]): 0.56 ± 0.06 s⁻¹
RP, proton peak 3 (CYP3A4 [1]; [13]): 0.38 ± 0.13 s⁻¹
RP, proton peak 3F (CYP3A4 [1]; [13]): 0.50 ± 0.19 s⁻¹
RP, proton peak 4F (CYP3A4 [1]; [13]): 0.07 ± 0.12 s⁻¹
RP, proton peak 5F (CYP3A4 [1]; [13]): -0.11 ± 0.19 s⁻¹
RP, proton peak 6F (CYP3A4 [1]; [13]): -0.07 ± 0.27 s⁻¹
RP, proton peak 7 (CYP3A4 [1]; [13]): 0.29 ± 0.08 s⁻¹
RP, proton peak 9 (CYP3A4 [1]; [13]): 1.11 ± 0.10 s⁻¹
RP, proton peak 10 (CYP3A4 [1]; [13]): 0.93 ± 0.11 s⁻¹
average RP of the fluorophenyl protons (CYP3A4 [1]; MDZ alone): 0.15 s⁻¹
average distance of chlorophenyl group from heme (CYP3A4 [1]; MDZ alone, calculated from RPs): ~ 10 Å
average distance of fluorophenyl group from heme (CYP3A4 [1]; MDZ alone, calculated from RPs): ~ 13 Å
distance of 1′-CH3 from heme (CYP3A4 [1]; MDZ alone, depending on the orientation): 7.6–9.2 Å
average RP of the fluorophenyl protons (CYP3A4 [1]; MDZ in the presence of CBZ): 0.1 s⁻¹
Δε at 100 μM MDZ in the titration curve (CYP3A4 [2]; 120 μM CBZ): ~ 0.015 μM^−1 cm^−1
Amax of the MDZ titration curve (CYP3A4 [2]; absence of CBZ): 0.0342 ± 0.0083 µM⁻¹ cm⁻¹
Kd (CYP3A4 [2]; human, pH 7.4): 70.6 ± 29 µM
Δε at 100 μM MDZ in the titration curve (CYP3A4 [2]; no CBZ): ~ 0.025 μM^−1 cm^−1
Km (CYP3A4 [6]): 5 to 11 µM
%HS of CYP3A4 heme (CYP3A4 [4]; 260 μM MDZ and 260 μM CBZ together, 1 μM CYP3A4): 55%
%HS of CYP3A4 heme (CYP3A4 [4]; 260 μM MDZ, 1 μM CYP3A4 (33% HS without ligands)): 70%
[MDZ] at which velocity of 1′-OH-MDZ formation reaches a maximum (CYP3A4 [5]; absence of CBZ): 25 µM
Km at 2 min (CYP3A4 [5]; pH 7.4, Km of 1′-OH-MDZ formation, presence of 240 μM CBZ): 12.5 ± 2.1 µM
Km at 2 min (CYP3A4 [5]; pH 7.4, Km of 4-OH-MDZ formation, absence of CBZ): 47.5 ± 6.8 µM
Km at 2 min (CYP3A4 [5]; pH 7.4, Km of 4-OH-MDZ formation, presence of 240 μM CBZ): 57.7 ± 2.1 µM

recombinant human cytochrome P450 3A4 (CYP3A4 NF14 construct) (from UniProt P08684 1-503) (enzyme)
stoichiometry N [7]: 4

Reference: publication PMC3828125 (Biochemistry, 2011)
